Source: ChEMBL document CHEMBL2021790, “Pyridone methylsulfone hydroxamate LpxC inhibitors for the treatment of serious gram-negative infections” (J Med Chem, 2012)
In brackets after ≈: the same amount, converted by molar mass.

How the values were obtained:
[1] = target: T1, UDP-3-O-acyl-N-acetylglucosamine deacetylase (Pseudomonas aeruginosa (strain ATCC 15692 / PAO1 / 1C / PRS 101 / LMG12228), UniProt P47205); test: Inhibition of Pseudomonas aeruginosa LpxC expressed in Escherichia coli using UDP-3-O-N-acetylglucosamine substrate measured after 30 mins by mass spectrometry
T1 sequence (P47205 whole entry): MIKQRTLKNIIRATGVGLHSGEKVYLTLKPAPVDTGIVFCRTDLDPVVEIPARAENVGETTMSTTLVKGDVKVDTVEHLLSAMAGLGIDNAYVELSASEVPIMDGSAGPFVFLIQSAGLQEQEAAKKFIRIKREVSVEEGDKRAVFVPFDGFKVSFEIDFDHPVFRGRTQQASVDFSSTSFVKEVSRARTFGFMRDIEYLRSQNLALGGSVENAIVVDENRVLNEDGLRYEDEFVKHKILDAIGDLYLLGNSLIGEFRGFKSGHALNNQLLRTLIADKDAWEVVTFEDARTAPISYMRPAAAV

[2] = test system: Pseudomonas aeruginosa; test: Antimicrobial activity against Pseudomonas aeruginosa PA3919 with (delta(mexAB-OprM)delta(mexXY)delta(MexZ) phenotype after 16 to 20 hrs by 2-fold microbroth dilution method; assay type: functional
[3] = test system: Pseudomonas aeruginosa; test: Antimicrobial activity against wild type Pseudomonas aeruginosa PA01 after 16 to 20 hrs by 2-fold microbroth dilution method; assay type: functional
[4] = test system: Acinetobacter sp.; test: Antimicrobial activity against Acinetobacter sp. after 16 to 20 hrs by 2-fold microbroth dilution method; assay type: functional
[5] = test system: Pseudomonas aeruginosa; test: microbe, parasite or virus in culture
Description: Antimicrobial activity against Pseudomonas aeruginosa after 16 to 20 hrs by 2-fold microbroth dilution method

[6] = test system: Escherichia coli; test: microbe, parasite or virus in culture
Description: Antimicrobial activity against Escherichia coli after 16 to 20 hrs by 2-fold microbroth dilution method

[7] = test system: Klebsiella pneumoniae; test: microbe, parasite or virus in culture
Description: Antimicrobial activity against Klebsiella pneumoniae after 16 to 20 hrs by 2-fold microbroth dilution method

[8] = test system: Klebsiella aerogenes; test: microbe, parasite or virus in culture
Description: Antimicrobial activity against Enterobacter aerogenes after 16 to 20 hrs by 2-fold microbroth dilution method

[9] = test system: Citrobacter freundii; test: microbe, parasite or virus in culture
Description: Antimicrobial activity against Citrobacter freundii after 16 to 20 hrs by 2-fold microbroth dilution method

Structure (SMILES) | IC50 [1] | MIC [2] | MIC [3] | MIC90 [4] | MIC90 [5] | MIC90 [6] | MIC90 [7] | MIC90 [8] | MIC90 [9]
C[C@@](CCn1ccc(-c2cccnc2)cc1=O)(C(=O)NO)S(C)(=O)=O | > 100 nM | 2 µg/mL (≈ 5.47 µM) | > 64 µg/mL |  |  |  |  |  | 
C[C@@](CCn1ccc(-c2ccccc2)nc1=O)(C(=O)NO)S(C)(=O)=O | 57 nM | 0.5 µg/mL (≈ 1.37 µM) | 16 µg/mL (≈ 43.8 µM) |  |  |  |  |  | 
C[C@@](CCn1ccc(-c2ccc(Cl)cc2F)cc1=O)(C(=O)NO)S(C)(=O)=O | 1 nM | 0.008 µg/mL (≈ 0.0192 µM) | 0.125 µg/mL (≈ 0.3 µM) | 64 µg/mL (≈ 154 µM) | 1 µg/mL (≈ 2.4 µM) | 0.125 µg/mL (≈ 0.3 µM) | 1 µg/mL (≈ 2.4 µM) | 0.5 µg/mL (≈ 1.2 µM) | 0.5 µg/mL (≈ 1.2 µM)
COc1cccc(-c2ccn(CC[C@](C)(C(=O)NO)S(C)(=O)=O)c(=O)c2)c1 | 3.7 nM | 0.03 µg/mL (≈ 0.0761 µM) | 1 µg/mL (≈ 2.54 µM) |  |  |  |  |  | 
C[C@@](CCn1ncc(-c2ccccc2)cc1=O)(C(=O)NO)S(C)(=O)=O | > 72 nM | 1 µg/mL (≈ 2.74 µM) | 32 µg/mL (≈ 87.6 µM) |  |  |  |  |  | 
C[C@@](CCn1ccc(-c2ccc(Cl)c(F)c2F)cc1=O)(C(=O)NO)S(C)(=O)=O | 0.52 nM | 0.008 µg/mL (≈ 0.0184 µM) | 0.125 µg/mL (≈ 0.287 µM) | > 64 µg/mL | 0.25 µg/mL (≈ 0.575 µM) | 0.06 µg/mL (≈ 0.138 µM) | 0.5 µg/mL (≈ 1.15 µM) | 0.25 µg/mL (≈ 0.575 µM) | 0.25 µg/mL (≈ 0.575 µM)
C[C@@](CCn1ccc(C2=CCCCC2)cc1=O)(C(=O)NO)S(C)(=O)=O | 4.1 nM | 0.03 µg/mL (≈ 0.0814 µM) | 0.5 µg/mL (≈ 1.36 µM) |  |  |  |  |  | 
C[C@@](CCn1ccc(CCc2ccccc2)cc1=O)(C(=O)NO)S(C)(=O)=O | 6 nM | 0.03 µg/mL (≈ 0.0764 µM) | 2 µg/mL (≈ 5.1 µM) |  |  |  |  |  | 
CC(CCc1ccc(-c2ccccc2)nc1)(C(=O)NO)S(C)(=O)=O (racemic) | 49 nM | 0.25 µg/mL (≈ 0.718 µM) | 8 µg/mL (≈ 23 µM) |  |  |  |  |  | 
COc1cnc(-c2ccc(-c3ccn(CC[C@](C)(C(=O)NO)S(C)(=O)=O)c(=O)c3)cc2)nc1 | 1.2 nM | 0.03 µg/mL (≈ 0.0635 µM) | 0.25 µg/mL (≈ 0.529 µM) |  |  |  |  |  | 
C[C@H]1[C@H](NC(=O)/C(=N\OC(C)(C)C(=O)O)c2csc(N)n2)C(=O)N1S(=O)(=O)O [AZTREONAM] |  |  |  | 32 µg/mL (≈ 73.5 µM) | 64 µg/mL (≈ 147 µM) | > 64 µg/mL | > 64 µg/mL | 32 µg/mL (≈ 73.5 µM) | > 64 µg/mL
C[C@@](CCn1ccc(-c2ccc(-c3ccon3)cc2)cc1=O)(C(=O)NO)S(C)(=O)=O | 1.1 nM | 0.015 µg/mL (≈ 0.0348 µM) | 0.25 µg/mL (≈ 0.579 µM) |  |  |  |  |  | 
O=C(O)c1cn(C2CC2)c2cc(N3CCNCC3)c(F)cc2c1=O [CIPROFLOXACIN] |  |  |  | 64 µg/mL (≈ 193 µM) | 64 µg/mL (≈ 193 µM) | > 64 µg/mL | 64 µg/mL (≈ 193 µM) | 1 µg/mL (≈ 3.02 µM) | 32 µg/mL (≈ 96.6 µM)
Cc1cc(-c2ccccc2)cc(=O)n1CC[C@](C)(C(=O)NO)S(C)(=O)=O | 22 nM | 0.125 µg/mL (≈ 0.33 µM) | 4 µg/mL (≈ 10.6 µM) |  |  |  |  |  | 
Cc1cccc(C)c1-c1ccn(CC[C@](C)(C(=O)NO)S(C)(=O)=O)c(=O)c1 | > 87 nM | 2 µg/mL (≈ 5.1 µM) | 64 µg/mL (≈ 163 µM) |  |  |  |  |  | 
C[C@@](CCn1ccc(-c2c(F)cccc2F)cc1=O)(C(=O)NO)S(C)(=O)=O | 4.8 nM | 0.03 µg/mL (≈ 0.0749 µM) | 0.5 µg/mL (≈ 1.25 µM) |  |  |  |  |  | 
CC(CCc1ncc(-c2ccccc2)cn1)(C(=O)NO)S(C)(=O)=O (racemic) | > 100 nM | 4 µg/mL (≈ 11.4 µM) | > 64 µg/mL |  |  |  |  |  | 
C[C@@](CCn1ccc(-c2cccc(F)c2)cc1=O)(C(=O)NO)S(C)(=O)=O | 3 nM | 0.015 µg/mL (≈ 0.0392 µM) | 0.5 µg/mL (≈ 1.31 µM) |  |  |  |  |  | 
C[C@@](CCn1ccc(-c2cc(F)cc(F)c2)cc1=O)(C(=O)NO)S(C)(=O)=O | 3.9 nM | 0.03 µg/mL (≈ 0.0749 µM) | 1 µg/mL (≈ 2.5 µM) |  |  |  |  |  | 
COc1ccc(-c2ccn(CC[C@](C)(C(=O)NO)S(C)(=O)=O)c(=O)c2)cc1F | 2 nM | 0.03 µg/mL (≈ 0.0727 µM) | 0.5 µg/mL (≈ 1.21 µM) |  |  |  |  |  | 
COc1ncc(-c2ccc(-c3ccn(CC[C@](C)(C(=O)NO)S(C)(=O)=O)c(=O)c3)cc2)cn1 | 2 nM | 0.03 µg/mL (≈ 0.0635 µM) | 0.5 µg/mL (≈ 1.06 µM) |  |  |  |  |  | 

Structure (SMILES) | IC50 [1] | MIC [2] | MIC [3] | MIC90 [4] | MIC90 [5] | MIC90 [6] | MIC90 [7] | MIC90 [8] | MIC90 [9]
COc1ccccc1-c1ccn(CC[C@](C)(C(=O)NO)S(C)(=O)=O)c(=O)c1 | 12 nM | 0.125 µg/mL (≈ 0.317 µM) | 4 µg/mL (≈ 10.1 µM) |  |  |  |  |  | 
C[C@@](CCn1ccc(-c2ccccc2)c(F)c1=O)(C(=O)NO)S(C)(=O)=O | 4.9 nM | 0.015 µg/mL (≈ 0.0392 µM) | 1 µg/mL (≈ 2.61 µM) |  |  |  |  |  | 
COc1cccc(-c2ccn(CC[C@](C)(C(=O)NO)S(C)(=O)=O)c(=O)c2)c1F | 1.8 nM | 0.015 µg/mL (≈ 0.0364 µM) | 0.5 µg/mL (≈ 1.21 µM) |  |  |  |  |  | 
C[C@@](CCn1ccc(-c2ccccc2F)cc1=O)(C(=O)NO)S(C)(=O)=O | 2.2 nM | 0.015 µg/mL (≈ 0.0392 µM) | 0.25 µg/mL (≈ 0.654 µM) |  |  |  |  |  | 
C[C@@](CCn1ccc(-c2ccc(-c3nccs3)cc2)cc1=O)(C(=O)NO)S(C)(=O)=O | 1.1 nM | 0.015 µg/mL (≈ 0.0335 µM) | 0.25 µg/mL (≈ 0.559 µM) |  |  |  |  |  | 
C[C@@](CCn1ccc(-c2ccc(-c3ccncc3)cc2)cc1=O)(C(=O)NO)S(C)(=O)=O | 1.2 nM | 0.03 µg/mL (≈ 0.0679 µM) | 0.5 µg/mL (≈ 1.13 µM) |  |  |  |  |  | 
CC(C)(C)c1ccn(CC[C@](C)(C(=O)NO)S(C)(=O)=O)c(=O)c1 | 69 nM | 0.25 µg/mL (≈ 0.726 µM) | 8 µg/mL (≈ 23.2 µM) |  |  |  |  |  | 
C[C@@](CCn1ccc(-c2ccc(F)cc2)cc1=O)(C(=O)NO)S(C)(=O)=O | 2.9 nM | 0.008 µg/mL (≈ 0.0209 µM) | 0.25 µg/mL (≈ 0.654 µM) |  |  |  |  |  | 
Cc1c(-c2ccccc2)ccn(CC[C@](C)(C(=O)NO)S(C)(=O)=O)c1=O | 6.7 nM | 0.015 µg/mL (≈ 0.0396 µM) | 0.5 µg/mL (≈ 1.32 µM) |  |  |  |  |  | 
CC(CCc1ccc(-c2ccccc2)cn1)(C(=O)NO)S(C)(=O)=O (racemic) | 13 nM | 0.125 µg/mL (≈ 0.359 µM) | 4 µg/mL (≈ 11.5 µM) |  |  |  |  |  | 
Cc1cn(CC[C@](C)(C(=O)NO)S(C)(=O)=O)c(=O)cc1-c1ccccc1 | 30 nM | 0.125 µg/mL (≈ 0.33 µM) | 8 µg/mL (≈ 21.1 µM) |  |  |  |  |  | 
COc1ccc(-c2ccn(CC[C@](C)(C(=O)NO)S(C)(=O)=O)c(=O)c2)cc1 |  | 0.008 µg/mL (≈ 0.0203 µM) | 0.125 µg/mL (≈ 0.317 µM) |  |  |  |  |  | 
Cc1ccn(CC[C@](C)(C(=O)NO)S(C)(=O)=O)c(=O)c1 | > 100 nM | 8 µg/mL (≈ 26.5 µM) | 64 µg/mL (≈ 212 µM) |  |  |  |  |  | 
CC(CCc1ccc(-c2ccccc2)nc1O)(C(=O)NO)S(C)(=O)=O (racemic) | 53 nM | 1 µg/mL (≈ 2.74 µM) | 32 µg/mL (≈ 87.8 µM) |  |  |  |  |  | 
C[C@@](CCn1ccc(-c2cc(F)ccc2F)cc1=O)(C(=O)NO)S(C)(=O)=O | 4.4 nM | 0.03 µg/mL (≈ 0.0749 µM) | 1 µg/mL (≈ 2.5 µM) |  |  |  |  |  | 
Cc1cc(C)cc(-c2ccn(CC[C@](C)(C(=O)NO)S(C)(=O)=O)c(=O)c2)c1 | 5.3 nM | 0.125 µg/mL (≈ 0.318 µM) | 2 µg/mL (≈ 5.1 µM) |  |  |  |  |  | 
C[C@@](CCn1ccc(-c2ccncc2)cc1=O)(C(=O)NO)S(C)(=O)=O | 39 nM | 0.5 µg/mL (≈ 1.37 µM) | 32 µg/mL (≈ 87.6 µM) |  |  |  |  |  | 
C[C@@](CCn1ccc(/C=C/c2ccccc2)cc1=O)(C(=O)NO)S(C)(=O)=O | 3.2 nM | 0.03 µg/mL (≈ 0.0768 µM) | 0.5 µg/mL (≈ 1.28 µM) |  |  |  |  |  | 
CC(CCn1ccc(C2CCCCC2)cc1=O)(C(=O)NO)S(C)(=O)=O (racemic) | 11 nM | 0.06 µg/mL (≈ 0.162 µM) | 2 µg/mL (≈ 5.4 µM) |  |  |  |  |  | 
C[C@@](CCn1ccc(-c2ccc(-c3ccccn3)cc2)cc1=O)(C(=O)NO)S(C)(=O)=O | 1.3 nM | 0.015 µg/mL (≈ 0.034 µM) | 0.5 µg/mL (≈ 1.13 µM) |  |  |  |  |  | 
C[C@@](CCn1ccc(-c2ccccn2)cc1=O)(C(=O)NO)S(C)(=O)=O | 60 nM | 0.25 µg/mL (≈ 0.684 µM) | 4 µg/mL (≈ 10.9 µM) |  |  |  |  |  | 
